Results published in PubChem BioAssay (NCI).
Where “and” joins values, the source holds several entries; their conditions need not be identical. Identical values can stand only once.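 Interpolation was linear, between the two tested concentrations surrounding the appropriate level; five concentrations were tested over 48 hours in 96-well plates. GI50: concentration for 50% inhibition of growth. Definition used: TGI = concentration required for complete inhibition of growth.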

Legend:
Test in all cases: NCI tumour cell line growth inhibition, 48 h
786-0 renal = test system: 786-0 renal
A549 NSCLC = test system: A549 NSCLC
ACHN renal = test system: ACHN renal
BT-549 breast = test system: BT-549 breast
CAKI-1 renal = test system: CAKI-1 renal
CCRF-CEM leukemia = test system: CCRF-CEM leukemia
COLO 205 colon = test system: COLO 205 colon
DU-145 prostate = test system: DU-145 prostate
HCC-2998 colon = test system: HCC-2998 colon
HCT-116 colon = test system: HCT-116 colon
HCT-15 colon = test system: HCT-15 colon
HL-60(TB) leukemia = test system: HL-60(TB) leukemia
HOP-62 NSCLC = test system: HOP-62 NSCLC
HOP-92 NSCLC = test system: HOP-92 NSCLC
HS 578T breast = test system: HS 578T breast
HT29 colon = test system: HT29 colon
IGROV1 ovarian = test system: IGROV1 ovarian
K-562 leukemia = test system: K-562 leukemia
KM12 colon = test system: KM12 colon
LOX IMVI melanoma = test system: LOX IMVI melanoma
M14 melanoma = test system: M14 melanoma
MALME-3M melanoma = test system: MALME-3M melanoma
MCF7 breast = test system: MCF7 breast
MDA-MB-231 breast = test system: MDA-MB-231 breast
MDA-MB-435 = test system: MDA-MB-435
MDA-N = test system: MDA-N
MOLT-4 leukemia = test system: MOLT-4 leukemia
NCI-H23 lung = test system: NCI-H23 lung
NCI-H460 lung = test system: NCI-H460 lung
NCI/ADR-RES ovarian = test system: NCI/ADR-RES ovarian
OVCAR-3 ovarian = test system: OVCAR-3 ovarian
OVCAR-4 ovarian = test system: OVCAR-4 ovarian
OVCAR-5 ovarian = test system: OVCAR-5 ovarian
PC-3 prostate = test system: PC-3 prostate
RPMI-8226 leukemia = test system: RPMI-8226 leukemia
RXF 393 renal = test system: RXF 393 renal
SF-268 CNS = test system: SF-268 CNS
SF-295 CNS = test system: SF-295 CNS
SF-539 CNS = test system: SF-539 CNS
SK-MEL-2 melanoma = test system: SK-MEL-2 melanoma
SK-MEL-28 melanoma = test system: SK-MEL-28 melanoma
SK-MEL-5 melanoma = test system: SK-MEL-5 melanoma
SK-OV-3 ovarian = test system: SK-OV-3 ovarian
SN12C renal = test system: SN12C renal
SNB-19 CNS = test system: SNB-19 CNS
SNB-75 CNS = test system: SNB-75 CNS
SR leukemia = test system: SR leukemia
SW-620 colon = test system: SW-620 colon
T-47D breast = test system: T-47D breast
TK-10 renal = test system: TK-10 renal
U251 CNS = test system: U251 CNS
UACC-257 melanoma = test system: UACC-257 melanoma
UACC-62 melanoma = test system: UACC-62 melanoma
UO-31 renal = test system: UO-31 renal
A498 renal = test system: A498 renal
EKVX NSCLC = test system: EKVX NSCLC
NCI-H226 lung = test system: NCI-H226 lung
NCI-H522 lung = test system: NCI-H522 lung
OVCAR-8 ovarian = test system: OVCAR-8 ovarian

Compound: COC1OC(COC(=O)NCCCCC(=O)C(F)(F)C(F)(F)C(F)(F)C(F)(F)C(F)(F)C(F)(F)C(F)(F)F)C(O)C(O)C1O (stereo unspecified)
- TGI (786-0 renal): 31.4 µM and 30.1 µM
- TGI (A549 NSCLC): 36.1 µM and 31 µM
- TGI (ACHN renal): 31.8 µM and 29.9 µM
- TGI (BT-549 breast): 31.4 µM and 31.9 µM
- TGI (CAKI-1 renal): 32.9 µM and 30 µM
- GI50 (CCRF-CEM leukemia): 16.4 µM and 7.62 µM
- TGI (CCRF-CEM leukemia): 44 µM and 37.4 µM
- TGI (COLO 205 colon): 45 µM and 39.7 µM
- GI50 (DU-145 prostate): 34.8 µM and 4.86 µM
- TGI (DU-145 prostate): > 100 µM and 29.9 µM
- TGI (HCC-2998 colon): 36.5 µM and 37.5 µM
- TGI (HCT-116 colon): 39.4 µM and 31.9 µM
- TGI (HCT-15 colon): 33.1 µM and 38.3 µM
- GI50 (HL-60(TB) leukemia): 24.9 µM
- TGI (HL-60(TB) leukemia): > 100 µM
- TGI (HOP-62 NSCLC): 32.1 µM and 30.1 µM
- GI50 (HOP-92 NSCLC): 14.2 µM and 2.27 µM
- TGI (HOP-92 NSCLC): 28.6 µM and 15.6 µM
- TGI (HS 578T breast): 43.8 µM and 33.7 µM
- TGI (HT29 colon): 27.4 µM and 35 µM
- TGI (IGROV1 ovarian): 30.9 µM and 27.4 µM
- TGI (K-562 leukemia): 36.8 µM and 37.5 µM
- TGI (KM12 colon): 37.1 µM and 48.7 µM
- TGI (LOX IMVI melanoma): 30.2 µM and 27.9 µM
- TGI (M14 melanoma): 29.7 µM and 29.4 µM
- TGI (MALME-3M melanoma): 44.3 µM and 47.3 µM
- TGI (MCF7 breast): 33.6 µM and 33.4 µM
- TGI (MDA-MB-231 breast): 42.3 µM and 40.2 µM
- TGI (MDA-MB-435): 32.2 µM and 31.7 µM
- TGI (MDA-N): 51.9 µM and 61.3 µM
- GI50 (MOLT-4 leukemia): 12.5 µM and 4.13 µM
- TGI (MOLT-4 leukemia): 31.7 µM and 23.1 µM
- TGI (NCI-H23 lung): 40.4 µM and 34.1 µM
- TGI (NCI-H460 lung): 36.3 µM and 49.5 µM
- TGI (NCI/ADR-RES ovarian): 61.8 µM and > 100 µM
- TGI (OVCAR-3 ovarian): 29.2 µM and 28.1 µM
- TGI (OVCAR-4 ovarian): 35.3 µM and 28.5 µM
- TGI (OVCAR-5 ovarian): 32.9 µM and 32.3 µM
- TGI (PC-3 prostate): 25.9 µM and 26.5 µM
- TGI (RPMI-8226 leukemia): > 100 µM
- TGI (RXF 393 renal): 26.4 µM and 30.2 µM
- TGI (SF-268 CNS): 30.8 µM and 37.1 µM
- TGI (SF-295 CNS): 44.8 µM and 44.2 µM
- TGI (SF-539 CNS): 29.5 µM and 34.2 µM
- TGI (SK-MEL-2 melanoma): 40.1 µM and 40.3 µM
- TGI (SK-MEL-28 melanoma): 31 µM and 30.5 µM
- TGI (SK-MEL-5 melanoma): 25.8 µM and 24.3 µM
- TGI (SK-OV-3 ovarian): 29.2 µM and 27.2 µM
- TGI (SN12C renal): 40.2 µM and 43.5 µM
- TGI (SNB-19 CNS): 34 µM and 34.1 µM
- TGI (SNB-75 CNS): 29.3 µM and 27.6 µM
- TGI (SR leukemia): > 100 µM
- TGI (SW-620 colon): 31.9 µM and 31.7 µM
- TGI (T-47D breast): 39.1 µM and 32.5 µM
- TGI (TK-10 renal): 30 µM and 32 µM
- TGI (U251 CNS): 39.7 µM and 24.6 µM
- TGI (UACC-257 melanoma): 36.2 µM and 37.7 µM
- TGI (UACC-62 melanoma): 26.6 µM and 27.5 µM
- TGI (UO-31 renal): 30.5 µM and 30.8 µM

Compound: Cc1nn(CN2CCN(C)CC2)c(=S)n1/N=C/c1ccc(-c2ccc(Cl)cc2Cl)o1
- TGI (786-0 renal): > 100 µM
- TGI (A498 renal): 56.8 µM
- TGI (A549 NSCLC): > 100 µM
- TGI (ACHN renal): > 100 µM
- TGI (BT-549 breast): > 100 µM
- TGI (COLO 205 colon): > 100 µM
- TGI (DU-145 prostate): > 100 µM
- TGI (EKVX NSCLC): 88.8 µM
- TGI (HCC-2998 colon): > 100 µM
- TGI (HCT-116 colon): > 100 µM
- TGI (HCT-15 colon): > 100 µM
- TGI (HL-60(TB) leukemia): > 100 µM
- TGI (HOP-62 NSCLC): > 100 µM
- TGI (HOP-92 NSCLC): > 100 µM
- TGI (HS 578T breast): > 100 µM
- TGI (HT29 colon): > 100 µM
- TGI (IGROV1 ovarian): > 100 µM
- TGI (K-562 leukemia): > 100 µM
- TGI (KM12 colon): > 100 µM
- TGI (LOX IMVI melanoma): > 100 µM
- TGI (M14 melanoma): > 100 µM
- TGI (MALME-3M melanoma): > 100 µM
- TGI (MCF7 breast): > 100 µM
- TGI (MDA-MB-231 breast): > 100 µM
- TGI (MDA-MB-435): > 100 µM
- TGI (MDA-N): > 100 µM
- TGI (MOLT-4 leukemia): 98.2 µM
- TGI (NCI-H226 lung): 95.2 µM
- TGI (NCI-H23 lung): > 100 µM
- TGI (NCI-H522 lung): > 100 µM
- TGI (NCI/ADR-RES ovarian): > 100 µM
- TGI (OVCAR-3 ovarian): > 100 µM
- TGI (OVCAR-4 ovarian): > 100 µM
- TGI (OVCAR-5 ovarian): > 100 µM
- TGI (OVCAR-8 ovarian): > 100 µM
- TGI (PC-3 prostate): > 100 µM
- TGI (SF-268 CNS): > 100 µM
- TGI (SF-539 CNS): > 100 µM
- TGI (SK-MEL-2 melanoma): > 100 µM
- TGI (SK-MEL-28 melanoma): > 100 µM
- TGI (SK-MEL-5 melanoma): > 100 µM
- TGI (SK-OV-3 ovarian): > 100 µM
- TGI (SN12C renal): > 100 µM
- TGI (SNB-19 CNS): > 100 µM
- TGI (SR leukemia): > 100 µM
- TGI (SW-620 colon): > 100 µM
- TGI (T-47D breast): > 100 µM
- TGI (TK-10 renal): > 100 µM
- TGI (U251 CNS): > 100 µM
- TGI (UACC-257 melanoma): > 100 µM
- TGI (UACC-62 melanoma): > 100 µM
- TGI (UO-31 renal): > 100 µM
